Data reported in ChEMBL document CHEMBL1201862, “PubChem BioAssay data set” (2004).
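Step 1: Grow cells in 96-well plates. Step 2: Expose to compound for 48 hours at 5 concentrations. Step 3: Interpolate endpoints linearly; if unreached, use highest concentration. At the GI50, growth is halved.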 The source made the active and inactive calls. Cut-off read from the data, not from the text of the source: active = GI50 up to about 1.1 µM and inactive = higher.

How the values were obtained:
Assay in all cases: NCI-60 cell line screen, 48 h
786-0 = test system: 786-0
A549 = test system: A549
ACHN = test system: ACHN
BT-549 = test system: BT-549
CAKI-1 = test system: CAKI-1
CCRF-CEM = test system: CCRF-CEM
COLO 205 = test system: COLO 205
DU-145 = test system: DU-145
EKVX = test system: EKVX
HCC 2998 = test system: HCC 2998
HCT-116 = test system: HCT-116
HCT-15 = test system: HCT-15
HL-60 = test system: HL-60
HOP-62 = test system: HOP-62
HOP-92 = test system: HOP-92
HT-29 = test system: HT-29
Hs-578T = test system: Hs-578T
IGROV-1 = test system: IGROV-1
K562 = test system: K562
KM12 = test system: KM12
LOX IMVI = test system: LOX IMVI
M14 = test system: M14
MCF7 = test system: MCF7
MDA-MB-231 = test system: MDA-MB-231
MDA-MB-435 = test system: MDA-MB-435
MDA-N = test system: MDA-N
MOLT-4 = test system: MOLT-4
Malme-3M = test system: Malme-3M
NCI-H226 = test system: NCI-H226
NCI-H23 = test system: NCI-H23
NCI-H460 = test system: NCI-H460
NCI-H522 = test system: NCI-H522
NCI/ADR-RES = test system: NCI/ADR-RES
OVCAR-3 = test system: OVCAR-3
OVCAR-4 = test system: OVCAR-4
OVCAR-5 = test system: OVCAR-5
OVCAR-8 = test system: OVCAR-8
PC-3 = test system: PC-3
RPMI-8226 = test system: RPMI-8226
RXF 393 = test system: RXF 393
SF-268 = test system: SF-268
SF-295 = test system: SF-295
SF-539 = test system: SF-539
SK-MEL-28 = test system: SK-MEL-28
SK-MEL-2 = test system: SK-MEL-2
SK-MEL-5 = test system: SK-MEL-5
SK-OV-3 = test system: SK-OV-3
SN12C = test system: SN12C
SNB-19 = test system: SNB-19
SNB-75 = test system: SNB-75
SR = test system: SR
SW-620 = test system: SW-620
T47D = test system: T47D
TK-10 = test system: TK-10
U-251 = test system: U-251
UACC-257 = test system: UACC-257
UACC-62 = test system: UACC-62
UO-31 = test system: UO-31
A498 = test system: A498

C[C@@H]1S[C@H](c2ccccc2F)N2Cc3ccccc3N=C12
GI50 (786-0): 23.4 µM (inactive) | GI50 (A549): 39.2 µM (inactive) | GI50 (ACHN): 31.4 µM (inactive) | GI50 (BT-549): 31.3 µM (inactive) | GI50 (CAKI-1): 20.9 µM (inactive) | GI50 (CCRF-CEM): 30.6 µM (inactive) | GI50 (COLO 205): 30.8 µM (inactive) | GI50 (DU-145): 33.7 µM (inactive) | GI50 (EKVX): 24.8 µM (inactive) | GI50 (HCC 2998): 20 µM (inactive) | GI50 (HCT-116): 17.1 µM (inactive) | GI50 (HCT-15): 28.5 µM | GI50 (HL-60): 19.3 µM (inactive) | GI50 (HOP-62): 29.8 µM (inactive) | GI50 (HOP-92): 17.3 µM (inactive) | GI50 (HT-29): 19.5 µM (inactive) | GI50 (Hs-578T): 27.7 µM (inactive) | GI50 (IGROV-1): 33.5 µM (inactive) | GI50 (K562): 22.9 µM (inactive) | GI50 (KM12): 27.3 µM (inactive) | GI50 (LOX IMVI): 18.5 µM (inactive) | GI50 (M14): 20.9 µM (inactive) | GI50 (MCF7): 31.6 µM (inactive) | GI50 (MDA-MB-231): 35 µM (inactive) | GI50 (MDA-MB-435): 23.5 µM (inactive) | GI50 (MDA-N): 20.7 µM (inactive) | GI50 (MOLT-4): 18.2 µM (inactive) | GI50 (Malme-3M): 19.9 µM (inactive) | GI50 (NCI-H226): 30.1 µM (inactive) | GI50 (NCI-H23): 31.3 µM (inactive) | GI50 (NCI-H460): 30.9 µM (inactive) | GI50 (NCI-H522): 19.2 µM (inactive) | GI50 (NCI/ADR-RES): 24.7 µM (inactive) | GI50 (OVCAR-3): 34.4 µM (inactive) | GI50 (OVCAR-4): 21 µM (inactive) | GI50 (OVCAR-5): 28.2 µM (inactive) | GI50 (OVCAR-8): 28.4 µM (inactive) | GI50 (PC-3): 22.9 µM (inactive) | GI50 (RPMI-8226): 20.6 µM (inactive) | GI50 (RXF 393): 27.4 µM (inactive) | GI50 (SF-268): 28.6 µM (inactive) | GI50 (SF-295): 26.2 µM (inactive) | GI50 (SF-539): 37.9 µM (inactive) | GI50 (SK-MEL-28): 40.7 µM (inactive) | GI50 (SK-MEL-2): 16.8 µM (inactive) | GI50 (SK-MEL-5): 17 µM (inactive) | GI50 (SK-OV-3): 25.1 µM (inactive) | GI50 (SN12C): 18.7 µM (inactive) | GI50 (SNB-19): 30.6 µM (inactive) | GI50 (SNB-75): 25.6 µM (inactive) | GI50 (SR): 15.9 µM (inactive) | GI50 (SW-620): 36.4 µM (inactive) | GI50 (T47D): 24.1 µM (inactive) | GI50 (TK-10): 36.7 µM (inactive) | GI50 (U-251): 27.9 µM (inactive) | GI50 (UACC-257): 28.6 µM (inactive) | GI50 (UACC-62): 19.1 µM (inactive) | GI50 (UO-31): 17.1 µM (inactive)

CC1(c2cccs2)CC(c2cccs2)=C(C#N)C(=C(C#N)C#N)N1 (stereo unspecified)
GI50 (786-0): 17.3 µM (inactive) | GI50 (A498): 18.7 µM (inactive) | GI50 (A549): 22 µM (inactive) | GI50 (ACHN): 17.5 µM (inactive) | GI50 (BT-549): 21.5 µM (inactive) | GI50 (CAKI-1): 19.7 µM (inactive) | GI50 (CCRF-CEM): 0.519 µM (active) | GI50 (COLO 205): 16.9 µM (inactive) | GI50 (DU-145): 15.6 µM (inactive) | GI50 (EKVX): 18.1 µM (inactive) | GI50 (HCC 2998): 15.9 µM (inactive) | GI50 (HCT-116): 17.3 µM (inactive) | GI50 (HCT-15): 16.4 µM | GI50 (HL-60): 10.1 µM (inactive) | GI50 (HOP-62): 19.9 µM (inactive) | GI50 (HOP-92): 14.8 µM (inactive) | GI50 (HT-29): 17.9 µM (inactive) | GI50 (Hs-578T): 30.9 µM (inactive) | GI50 (IGROV-1): 17.7 µM (inactive) | GI50 (K562): 23 µM (inactive) | GI50 (KM12): 17.1 µM (inactive) | GI50 (LOX IMVI): 16.1 µM (inactive) | GI50 (M14): 20.4 µM (inactive) | GI50 (MCF7): 18.5 µM (inactive) | GI50 (MDA-MB-231): 23.5 µM (inactive) | GI50 (MDA-MB-435): 17.4 µM (inactive) | GI50 (MDA-N): 16.7 µM (inactive) | GI50 (MOLT-4): 44.7 µM (inactive) | GI50 (Malme-3M): 19.2 µM (inactive) | GI50 (NCI-H226): 22.3 µM (inactive) | GI50 (NCI-H23): 19.4 µM (inactive) | GI50 (NCI-H460): 20.2 µM (inactive) | GI50 (NCI/ADR-RES): 21.3 µM (inactive) | GI50 (OVCAR-3): 16.3 µM (inactive) | GI50 (OVCAR-4): 16.4 µM (inactive) | GI50 (OVCAR-5): 21.5 µM (inactive) | GI50 (OVCAR-8): 17.3 µM (inactive) | GI50 (PC-3): 15.4 µM (inactive) | GI50 (RPMI-8226): 17.5 µM (inactive) | GI50 (RXF 393): 18.3 µM (inactive) | GI50 (SF-268): 18.2 µM (inactive) | GI50 (SF-295): 16.9 µM (inactive) | GI50 (SF-539): 25.2 µM (inactive) | GI50 (SK-MEL-28): 20.4 µM (inactive) | GI50 (SK-MEL-2): 17.8 µM (inactive) | GI50 (SK-MEL-5): 14.6 µM (inactive) | GI50 (SK-OV-3): 21.6 µM (inactive) | GI50 (SN12C): 18.7 µM (inactive) | GI50 (SNB-19): 18.7 µM (inactive) | GI50 (SNB-75): 18.8 µM (inactive) | GI50 (SR): 18 µM (inactive) | GI50 (SW-620): 11.4 µM (inactive) | GI50 (T47D): 16.6 µM (inactive) | GI50 (TK-10): 21 µM (inactive) | GI50 (U-251): 15.8 µM (inactive) | GI50 (UACC-257): 17.6 µM (inactive) | GI50 (UACC-62): 15 µM (inactive) | GI50 (UO-31): 18.9 µM (inactive)

[N-]=[N+]=NC1(c2ccccc2)C(=O)Nc2ccccc2C1=O (stereo unspecified)
GI50 (786-0): 68.2 µM (inactive) | GI50 (A498): 0.706 µM (active) | GI50 (A549): 76.4 µM (inactive) | GI50 (ACHN): 34.6 µM (inactive) | GI50 (BT-549): 13.8 µM (inactive) | GI50 (CAKI-1): 32.2 µM (inactive) | GI50 (CCRF-CEM): 27.3 µM (inactive) | GI50 (COLO 205): 71.4 µM (inactive) | GI50 (DU-145): 75.5 µM (inactive) | GI50 (HCC 2998): 57.8 µM (inactive) | GI50 (HCT-116): 30.3 µM (inactive) | GI50 (HCT-15): 33.8 µM | GI50 (HL-60): 34.5 µM (inactive) | GI50 (HOP-62): 41.8 µM (inactive) | GI50 (HOP-92): 26.1 µM (inactive) | GI50 (HT-29): 31.3 µM (inactive) | GI50 (Hs-578T): 22.3 µM (inactive) | GI50 (IGROV-1): 37.1 µM (inactive) | GI50 (K562): 29.4 µM (inactive) | GI50 (KM12): 30.1 µM (inactive) | GI50 (LOX IMVI): 37.5 µM (inactive) | GI50 (M14): 20.4 µM (inactive) | GI50 (MCF7): 35 µM (inactive) | GI50 (MDA-MB-231): 55.2 µM (inactive) | GI50 (MDA-MB-435): 11.3 µM (inactive) | GI50 (MDA-N): 21.4 µM (inactive) | GI50 (MOLT-4): 21.7 µM (inactive) | GI50 (Malme-3M): 40.7 µM (inactive) | GI50 (NCI-H23): 34.9 µM (inactive) | GI50 (NCI-H460): 37.5 µM (inactive) | GI50 (NCI/ADR-RES): 51.2 µM (inactive) | GI50 (OVCAR-3): 35 µM (inactive) | GI50 (OVCAR-4): 54.7 µM (inactive) | GI50 (OVCAR-5): 30 µM (inactive) | GI50 (PC-3): 25.1 µM (inactive) | GI50 (RPMI-8226): 22.7 µM (inactive) | GI50 (RXF 393): 25.5 µM (inactive) | GI50 (SF-268): 38.2 µM (inactive) | GI50 (SF-295): 56.4 µM (inactive) | GI50 (SF-539): 36.8 µM (inactive) | GI50 (SK-MEL-28): 56.2 µM (inactive) | GI50 (SK-MEL-2): 24.4 µM (inactive) | GI50 (SK-MEL-5): 14.9 µM (inactive) | GI50 (SK-OV-3): 55.6 µM (inactive) | GI50 (SN12C): 48.8 µM (inactive) | GI50 (SNB-19): 38 µM (inactive) | GI50 (SNB-75): 60.3 µM (inactive) | GI50 (SR): 41.2 µM (inactive) | GI50 (SW-620): 26.4 µM (inactive) | GI50 (T47D): 95.5 µM (inactive) | GI50 (TK-10): 49.5 µM (inactive) | GI50 (U-251): 41.2 µM (inactive) | GI50 (UACC-257): 78.2 µM (inactive) | GI50 (UACC-62): 19.1 µM (inactive) | GI50 (UO-31): 22.1 µM (inactive)
